# Laboratory results taken from patent US5652222A, “Selective inhibition of leukemic cell proliferation by bcr-abl antisense oligonucleotides” (Temple University-of The Commonwealth System of Higher …, priority 1993, dated 1997).
# “Also recorded” adds a separate entry of the source.
# What was measured:
# [1] = tested on: cells of CML patients in blast crisis, K-28 (b3a2) type junction; assay: Colony formation of CML blast crisis patient cells expressing the b3a2 (K-28) junction; assay type: cell-based, human; conditions: antisense to L-6 junction on K-28 cells, compared with untreated cells
# Text: To identify CML blast crisis patients carrying the second common type junction, in which bcr exon 3 is juxtaposed to c-abl exon 2, total RNA derived from cells of CML patients in blast crisis was reverse-transcribedwith synthetic primers. The 3' primer (SEQ ID NO:10) was complementary to 22 nucleotides of c-abl. exon 2. The 5' primer was the 22-mer GTCATCGTCCACTCAGCCACTG (SEQ ID NO:12) complementary to 22 nucleotides of bcr exon 3. The RNA was amplified by polymerase chain reaction according to Example 1. The amplification products were then hybridized with the synthetic 18-mer oligonucleotide GAAGGGCTTT TGAACTCT (SEQ ID NO:6), which is complementary to the b3a2 junction. After cloning of breakpoints in two patients, sequence analysis of several clones identified the b3a2 junction as precisely corresponding to the K-28 breakpoint shown in FIG. 3. (SEQ ID NO:4).
# Utilizing the culture condition and oligomer treatment conditions of Example 1, cells were exposed to either no oligomer (FIG. 4A), the 18-nucleotide synthetic oligomer GAAGTGCTGT TGAACTCT (SEQ ID NO:5) partially complementary to the b3a2 junction, containing 9 nucleotides corresponding to bcr and 9 nucleotides corresponding to c-abl but with two mismatches (FIG. 4B); or the 18-nucleotide synthetic oligomer GAAGGGCTTT TGAACTCT (SEQ ID NO:6) completely complementary to the same bcr-abl junction (FIG. 4C).
# [2] = tested on: 1:1 mixtures of normal marrow progenitors and CML blast crisis cells; assay: CFU-GM + CFU-L colony formation of 1:1 mixtures of normal marrow progenitors and CML blast crisis cells; assay type: cell-based, human; conditions: Table 3; 1:1 mixture; 40 μg/ml at 0 h, 20 μg/ml 18 h later; 12 days; mean ± SD; control 978 ± 24
# Text: Normal bone marrow mononuclear cells (MNC) were obtained by aspiration from consenting volunteers and enriched for hematopoietic progenitors as previously reported by numerous investigators (Zamecnick et al., Proc. Natl. Acad. Sci. U.S.A. 83, 4143-4147 (1986); Caracciolo et al., J. Clin. Invest. 85, 55-61 (1990)). In brief, marrow cells were subjected to Ficoll-Hypaque density gradient sedimentation and then depleted of adherent monocyte-macrophage and T-lymphocytes by adherence to plastic Petri dishes and rosetting with neuraminidase-treated sheep red blood cells, respectively. Philadelphia chromosome-positive blast cells were isolated by Ficoll-Hypaque density gradient sedimentation from a CML patient in blast crisis (L-6 type junction). […] The residual non-blast cells had the morphological appearance of small lymphocytes. 25,000 MNC and 25,000 CML blast cells were combined and incubated with bcr-abl breakpoint-Specific antisense oligomer (SEQ ID NO:3) (40 μg/ml at h 0; 20 μg/ml 18 hours later) or with a 4 nucleotide mismatch bcr-abl antisense oligomer (SEQ ID NO:2) (40 μg/ml at 0 h; 20 μg/ml 18 hours later) or left untreated. […] At the end of the incubation period colonies were counted. […]
# [3] = tested on: β2-microglobulin transcript; assay: β2-microglobulin transcript in residual colonies (RT-PCR control); assay type: cell-based, human; conditions: antisense-treated colonies
# Description: To provide unambiguous evidence of the elimination of Philadelphia chromosome blast cells, residual cells from Example 3 were evaluated for the expression of bcr-abl transcripts, since the levels of this transcript should reflect the number of surviving leukemia cells. For this purpose, total RNA was isolated from a pool of colonies from Example 3, and the levels of bcr-abl transcripts were evaluated. Levels of β2 -microglobulin transcript were also determined as a control. The β2 -microglobulin gene is expressed independent of cell cycle.
# Accordingly, bcr-abl and β2 -microglobulin transcripts were reverse-transcribed and amplified in the presence of specific primers and Taq polymerase as described by Rappollee, Science 241, 708-712 (1988). The amplification products were separated on a 2% agarose gel and transferred to a nitrocellulose filter, which was hybridized with a synthetic 40-nucleotide c-abl fragment and a 40-nucleotide β2 -microglobulin fragment and labeled with [γ-^32 P]-ATP and polynucleotide kinase. The c-abl probe recognizes the amplified 257-nucleotide sequence of FIG. 1, which contains the L-6 type bcr-abl junction. The β2 -microglobulin probe recognizes the 195-nucleotide sequence contained within 5' and 3' β2 -microglobulin primers (Id.; Suggs et al., Proc. Natl. Acad. Sci. U.S.A. 78, 6613 (1981)).
# BV173 cells = assay: Macroscopic examination / disease state of leukemic SCID mice; assay type: in vivo, SCID mice (human leukemic cells)
# Description: Injection of the mice with BV173 cells induces a disease closely resembling that in human leukemia patients.
# To determine whether synthetic phosphorothioate oligodeoxynucleotides targeted against the bcr-abl junction of […] cells would modify the disease process in SCID mice. SCID mice were injected with 10^6 BV173 cells. The mice then received 1 mg of sense (ATCAATAAGG AAGCCCTTCAGCG, SEQ ID NO:34) or antisense ([…] ATTGAT, SEQ ID NO:29) b2/a2 bcr-abl phosphorothioate oligodeoxynucleotides (pyrogen leven <1 Eu/mg; 0.2 ml in Iscove modified Dulbecco medium in 5-10 seconds) intravenously for each of 9 consecutive days, beginning either 7 or 21 days after introducing 10^6 BV173 cells. Control mice received the diluent (iscove's modified Dulbecco medium) only. These time points approximate distinct disease stages in humans.
substance,measurement,setting,value
SEQ ID NO:3: synthetic 18-mer GAAGGGCTTC TTCCTTAT specific for the 18-nucleotide target sequence of the L-6 bcr-abl junction (antisense GAAGGGCTTCTTCCTTAT; chemistry not given here),inhibition of colony formation,[1],2.5-5%
same,reduction of colony formation,[1],No significant reduction of colony formation
same,"Colonies or Clusters, CFU-GM + CFU-L",[2],450 ± 42 colonies or clusters
same,expression of β2-microglobulin,[3],clearly detectable
"SEQ ID NO:34: phosphorothioate sense sequence ATCAATAAGGAAGCCCTTCAGCG (23-mer b2a2 sense) (sense ATCAATAAGGAAGCCCTTCAGCG; all phosphorothioate, sugars by position and methylation of C not given here)",evidence of active leukemic disease process,BV173 cells; 1 mg/mouse x9 i.v. from day 7 or 21,"macroscopic, microscopic and molecular evidence of an active leukemic disease process"
same,macroscopic examination: leukemic nodules in liver and kidneys,"BV173 cells; from day +7, 26 days after last treatment (6 weeks)","in addition to spleen enlargement, the presence of distinct leukemic nodules in liver and kidneys"
same,splenomegaly and leukemic metastases in the liver,"BV173 cells; from day +21, 12 days after last treatment (6 weeks)",splenomegaly and leukemic metastases in the liver were detected
same,"macroscopic examination: metastases / leukemic nodules in liver, kidneys, splenomegaly","BV173 cells; from day +21, 26 days after treatment (8 weeks), FIG. 11","numerous metastases in the liver (FIG. 11A), a few in the kidneys, and splenomegaly; also recorded: Numerous distinct leukemic nodules are visible in the liver"
